Target: Sarcoplasmic/endoplasmic reticulum calcium ATPase 1 (Oryctolagus cuniculus, UniProt P04191)
Experiment: Binding affinity to SERCA1a in sarcoplasmic reticulum vesicles of rabbit skeletal muscle after 2.5 to 6 mins by spectrophotometric analysis
Parameters: species or system Muscle tissue

Chain of Sarcoplasmic/endoplasmic reticulum calcium ATPase 1 (P04191 whole entry): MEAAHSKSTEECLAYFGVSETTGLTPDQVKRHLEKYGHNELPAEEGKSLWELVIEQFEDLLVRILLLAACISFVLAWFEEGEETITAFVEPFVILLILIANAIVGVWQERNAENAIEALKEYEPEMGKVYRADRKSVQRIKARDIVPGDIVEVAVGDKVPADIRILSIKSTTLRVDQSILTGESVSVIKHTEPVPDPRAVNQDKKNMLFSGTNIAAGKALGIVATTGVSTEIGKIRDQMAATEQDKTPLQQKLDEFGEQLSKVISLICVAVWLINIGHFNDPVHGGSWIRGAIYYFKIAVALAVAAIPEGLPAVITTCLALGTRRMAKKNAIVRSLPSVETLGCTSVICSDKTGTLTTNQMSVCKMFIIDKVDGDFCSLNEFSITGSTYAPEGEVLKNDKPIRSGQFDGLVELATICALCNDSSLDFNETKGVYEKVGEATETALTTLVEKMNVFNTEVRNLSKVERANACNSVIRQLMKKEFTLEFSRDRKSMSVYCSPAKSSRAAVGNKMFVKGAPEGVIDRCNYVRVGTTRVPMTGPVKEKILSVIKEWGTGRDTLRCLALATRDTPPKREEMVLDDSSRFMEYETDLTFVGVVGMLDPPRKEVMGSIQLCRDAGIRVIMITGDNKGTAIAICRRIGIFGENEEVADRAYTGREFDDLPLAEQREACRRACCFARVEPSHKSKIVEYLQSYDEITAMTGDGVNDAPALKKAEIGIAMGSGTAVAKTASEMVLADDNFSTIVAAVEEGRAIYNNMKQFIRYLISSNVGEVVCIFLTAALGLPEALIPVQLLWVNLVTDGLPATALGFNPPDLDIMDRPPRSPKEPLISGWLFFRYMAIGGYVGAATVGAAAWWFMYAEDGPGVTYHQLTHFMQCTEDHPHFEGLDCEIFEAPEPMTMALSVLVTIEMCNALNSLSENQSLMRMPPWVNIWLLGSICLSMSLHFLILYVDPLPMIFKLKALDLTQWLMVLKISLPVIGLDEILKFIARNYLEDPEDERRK

With `C/C=C(/C)C(=O)O[C@H]1C(C)=C2[C@H]([C@@H]1OC(=O)CCCCCCC)[C@@](C)(OC(C)=O)C[C@H](OC(=O)CCC)[C@@]1(OC(C)=O)[C@H]2OC(=O)[C@@]1(C)O` as the compound, how does the Kd read?
Its Kd is 2.6 nM.

For `C/C=C(/C)C(=O)O[C@H]1C(C)=C2[C@H]([C@@H]1OC(=O)CCCCCCC)[C@@](C)(OC(=O)CCCCCCC)C[C@H](OC(=O)CCC)[C@@]1(O)[C@H]2OC(=O)[C@@]1(C)O`, which Kd is on record?
The Kd was 2.5 nM.

With `C/C=C(/C)C(=O)O[C@H]1C(C)=C2[C@H]([C@@H]1OC(=O)CCCCCCC)[C@@](C)(OC(C)=O)C[C@H](OC(=O)CCC)[C@@]1(O)[C@H]2O[C@H]2N=C(C)O[C@]21C` as the compound, how does the Kd read?
Its Kd is 1.7 nM.

For `C/C=C(/C)C(=O)O[C@H]1C(C)=C2[C@H]([C@@H]1OC(=O)CCCCCCC)[C@@](C)(OC(C)=O)C[C@H](OC(=O)CCC)[C@@]1(O)[C@H]2O[C@H]2N=C(CCC)O[C@]21C`, which Kd is on record?
The Kd was 20 nM.

For `C/C=C(/C)C(=O)O[C@H]1C(C)=C2[C@H]([C@@H]1OC(=O)CCCCCCC)[C@@](C)(OC(C)=O)C[C@H](OC(=O)CCC)[C@@]1(OC(=O)CCC)[C@H]2OC(=O)[C@@]1(C)O`, which Kd is on record?
The Kd was 11 nM.

How did the Kd turn out when `C/C=C(/C)C(=O)O[C@H]1C(C)=C2[C@H]([C@@H]1OC(=O)CCCCCCC)[C@@](C)(OC(C)=O)C[C@H](OC(=O)CCC)[C@@]1(O)[C@H]2OC(=O)[C@@]1(C)O` [THAPSIGARGIN] was run?
Its Kd is 0.2 nM.

`C/C=C(/C)C(=O)O[C@H]1C(C)=C2[C@H]([C@@H]1OC(=O)CCCCCCC)[C@@](C)(OC(C)=O)C[C@H](O)[C@@]1(O)[C@H]2OC(=O)[C@@]1(C)O` [DEBUTANOYLTHAPSIGARGIN] was tested. Which Kd did it give?
The Kd was 10 nM.

`C/C=C(/C)C(=O)O[C@H]1C(C)=C2[C@H]([C@@H]1OC(=O)CCCCCCC)[C@@](C)(OC(C)=O)C[C@H](OC(=O)CCC)[C@@]1(OC(=O)C(C)C)[C@H]2OC(=O)[C@@]1(C)O` was tested. Which Kd did it give?
Its Kd is 13 nM.

With `C/C=C(/C)C(=O)O[C@H]1C(C)=C2[C@H]([C@@H]1OC(=O)CCCCCCC)[C@@](C)(OC(C)=O)C[C@H](OC(=O)CCC)[C@@]1(OC(=O)CCCCCCC)[C@H]2OC(=O)[C@@]1(C)O` as the compound, how does the Kd read?
The Kd was 55 nM.

With `C/C=C(/C)C(=O)O[C@H]1C(C)=C2[C@H]([C@@H]1OC(=O)CCCCCCC)[C@@](C)(OC(C)=O)C[C@H](OC(=O)CCC)[C@@]1(OC(=O)CCCCC)[C@H]2OC(=O)[C@@]1(C)O` as the compound, how does the Kd read?
Its Kd is 8.5 nM.

With `C/C=C(/C)C(=O)O[C@H]1C(C)=C2[C@H]([C@@H]1OC(=O)c1ccccc1)[C@@](C)(OC(C)=O)C[C@H](OC(=O)CCC)[C@@]1(O)[C@H]2OC(=O)[C@@]1(C)O` as the compound, how does the Kd read?
Its Kd is 1.5 nM.

How did the Kd turn out when `C/C=C(/C)C(=O)O[C@H]1C(C)=C2[C@H]([C@@H]1OC(=O)CCCCCCC)[C@@](C)(OC(C)=O)C[C@H](OC(=O)CCC)[C@@]1(O)[C@H]2O[C@H]2N=C(CCOCC)O[C@]21C` was run?
Its Kd is 79 nM.

With `C/C=C(/C)C(=O)O[C@H]1C(C)=C2[C@H]([C@@H]1OC(=O)CCCCCCC)[C@@](C)(OC(C)=O)C[C@H](OC(=O)CCC)[C@@]1(O)[C@H]2O[C@H](OC(C)=O)[C@@]1(C)OC(C)=O` (relative stereo) as the compound, how does the Kd read?
The Kd was 9.4 nM.

`C/C=C(/C)C(=O)O[C@H]1C(C)=C2[C@H]([C@@H]1OC(=O)CCCCCCC)[C@@](C)(OC(C)=O)C[C@H](OC(=O)CCC)[C@]13O[C@]1(C)C(=O)O[C@@H]23` was tested. Which Kd did it give?
The Kd was 13 nM.

From ChEMBL document CHEMBL2331173, “Water-mediated interactions influence the binding of thapsigargin to sarco/endoplasmic reticulum calcium adenosinetriphosphatase” (J Med Chem, 2013)
